Laboratory results: patent publication US11008301B2, “Piperidinone formyl peptide 2 receptor agonists” (BRISTOL-MYERS SQUIBB COMPANY, priority 2017, dated 2021)
Several values for one entry are separate records, joined by “and”; a condition that tells them apart may be missing. Identical values can stand only once. Like-named read-outs stand apart in the source and are kept apart here.

How the values were obtained:
human FPR1 = human FPR1 (Homo sapiens (Human), UniProt P21462); assay: FPR1 cyclic adenosine monophosphate (cAMP) assay; type: cell-based; settings: CHO cells overexpressing human FPR1; forskolin 10 μM; inhibition of cAMP production; read-out: hFPR1 cAMP EC50
human FPR1, sequence (P21462 whole entry): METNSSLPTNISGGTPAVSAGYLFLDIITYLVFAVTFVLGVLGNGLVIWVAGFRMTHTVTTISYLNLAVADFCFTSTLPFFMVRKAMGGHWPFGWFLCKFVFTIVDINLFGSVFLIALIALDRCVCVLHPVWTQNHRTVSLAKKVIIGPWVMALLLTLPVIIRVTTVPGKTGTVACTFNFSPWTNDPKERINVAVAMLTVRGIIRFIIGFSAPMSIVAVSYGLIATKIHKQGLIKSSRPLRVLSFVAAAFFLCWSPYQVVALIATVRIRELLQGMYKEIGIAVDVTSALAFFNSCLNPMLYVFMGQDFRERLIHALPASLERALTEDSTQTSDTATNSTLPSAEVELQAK
Procedure: (§1) FPR2 and FPR1 Cyclic Adenosine Monophosphate (cAMP) Assays. A mixture of forskolin (5 μM final for FPR2 or 10 μM final for FPR1) and IBMX (200 μM final) were added to 384-well Proxiplates (Perkin-Elmer) pre-dotted with test compounds in DMSO (1% final) at final concentrations in the range of 1.7 nM to 100 μM. Chinese Hamster Ovary cells (CHO) overexpressing human FPR1 or human FPR2 receptors were cultured in F-12 (Ham's) medium supplemented with 10% qualified FBS, 250 μg/ml zeocin and 300 μg/ml hygromycin (Life Technologies). Reactions were initiated by adding 2,000 human FPR2 cells per well or 4,000 human FPR1 cells per well in Dulbecco's PBS (with calcium and magnesium) (Life Technologies) supplemented with 0.1% BSA (Perkin-Elmer). The reaction mixtures were incubated for 30 min at room temperature. The level of intracellular cAMP was determined using the HTRF HiRange cAMP assay reagent kit (Cisbio) according to manufacturer's instruction. Solutions of cryptate conjugated anti-cAMP and d2 flurorophore-labelled cAMP were made in a supplied lysis buffer separately. Upon completion of the reaction, the cells were lysed with equal volume of the d2-cAMP solution and anti-cAMP solution. After a 1-h room temperature incubation, time-resolved fluorescence intensity was measured using the Envision (Perkin-Elmer) at 400 nm excitation and dual emission at 590 nm and 665 nm. A calibration curve was constructed with an external cAMP standard at concentrations ranging from 1 μM to 0.1 pM by plotting the fluorescent intensity ratio from 665 nm emission to the intensity from the 590 nm emission against cAMP concentrations. The potency and activity of a compound to inhibit cAMP production was then determined by fitting to a 4-parametric logistic equation from a plot of cAMP level versus compound concentrations.

human FPR2 = human FPR2 (Homo sapiens (Human), UniProt P25090); assay: FPR2 cyclic adenosine monophosphate (cAMP) assay; type: cell-based; settings: CHO cells overexpressing human FPR2
human FPR2, sequence (P25090 whole entry): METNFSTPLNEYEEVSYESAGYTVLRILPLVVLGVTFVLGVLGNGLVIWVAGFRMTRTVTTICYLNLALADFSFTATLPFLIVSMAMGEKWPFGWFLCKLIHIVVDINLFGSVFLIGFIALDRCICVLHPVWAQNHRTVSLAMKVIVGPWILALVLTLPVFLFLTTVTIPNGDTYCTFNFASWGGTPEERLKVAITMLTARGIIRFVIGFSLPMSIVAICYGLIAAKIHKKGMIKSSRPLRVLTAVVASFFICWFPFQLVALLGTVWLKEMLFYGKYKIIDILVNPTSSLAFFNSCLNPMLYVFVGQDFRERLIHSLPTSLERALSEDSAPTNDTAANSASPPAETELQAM
Procedure: as §1

[1] = forskolin 5 μM, inhibition of cAMP production, read-out: hFPR2 cAMP2 EC50
[2] = cAMP assay, read-out: hFPR2 agonist activity EC50 (hFPR2 Assay)

EC50 (human FPR1) [nM] | EC50 (human FPR2; [1]) [nM] | EC50 (human FPR2; [2]) | Compound
920 | 31 | – | O=C(Nc1ccc(C(F)(F)F)cc1)N[C@@H]1CCCN(c2ccc(N3CCOCC3)nc2)C1=O [Example 54, (R)-1-(1-(6-Morpholinopyridin-3-yl)-2-oxopiperidin-3-yl)-3-(4-(trifluoromethyl)phenyl)urea]
660 | 32 | – | COCC1CCCCN1c1ccc(N2CCC[C@@H](NC(=O)Nc3ccc(C(F)(F)F)nc3)C2=O)cc1 (stereo partly shown) [Example 15]
11 | 3 | – | O=C(Nc1ccc(C(F)(F)F)cc1)N[C@@H]1CCCN(c2ccc(N3CCCCC3)cc2)C1=O [Example 45]
> 10000 | 330 | – | O=C(Nc1ccc(C(F)(F)F)nc1)N[C@@H]1CCCN(c2ccc(N3CCCCC3=O)cc2F)C1=O [Example 50]
2200 | 400 | – | CS(=O)(=O)N1CCN(c2ccc(N3CCC[C@@H](NC(=O)Nc4ccc(C(F)(F)F)cc4)C3=O)cc2)CC1 [Example 34]
1700 | 0.31 | – | CN(C)C1CCN(c2ccc(N3CCC[C@@H](NC(=O)Nc4ccc(Cl)cc4F)C3=O)c(F)c2)C1 (stereo partly shown) [Example 81]
1100 | 0.39 | – | CN(C)C1CCN(c2ccc(N3CCC[C@@H](NC(=O)Nc4ccc(Cl)cc4)C3=O)cc2F)C1 (stereo partly shown) [Example 83]
76 | 2.5 | – | O=C(Nc1ccc(Cl)cc1)N[C@@H]1CCCN(c2ccc(N3C[C@H]4COC[C@H]4C3)cc2)C1=O [Example 95]
330 | 2.6 | – | O=C(Nc1ccc(Cl)cc1)N[C@@H]1CCCN(c2ccc(N3C[C@H]4CC[C@@H](C3)O4)cc2F)C1=O [Example 107]
45 | 1.8 | – | O=C(Nc1ccc(C(F)(F)F)cc1)N[C@@H]1CCCN(c2ccc(N3CCCC(CO)C3)nc2)C1=O (stereo partly shown) [Example 56]
36 | 2.1 | – | COCC1CCCCN1c1ccc(N2CCC[C@@H](NC(=O)Nc3ccc(C(F)(F)F)cc3)C2=O)cc1 (stereo partly shown) [Example 14]
12 | 3.7 | ≤ 10 nM | COC[C@@H]1CCCN1c1ccc(N2CCC[C@@H](NC(=O)Nc3ccc(Cl)cc3)C2=O)cc1 [Example 26]
1100 | 0.18 | – | CN(C)C1CCCN(c2ccc(N3CCC[C@@H](NC(=O)Nc4ccc(C(F)(F)F)cc4)C3=O)cc2)C1 (stereo partly shown) [Example 77]
5000 | 380 | 100 to 1000 nM | O=C(Nc1ccc(C(F)(F)F)cn1)N[C@@H]1CCCN(c2ccc(N3CC4(COC4)C3)cc2)C1=O [Example 12]
630 | 18 | – | O=C(Nc1ccc(C(F)(F)F)cc1)N[C@@H]1CCCN(c2ccc(N3C[C@H]4CC[C@@H](C3)O4)nc2)C1=O [Example 104]
410 | 28 | 10 to 100 nM | O=C(Nc1ccc(C(F)(F)F)cc1)N[C@@H]1CCCN(c2ccc(N3CCCCC3=O)cc2)C1=O [Example 4]
67 | 2.4 | – | O=C(Nc1ccc(C(F)(F)F)cc1)N[C@@H]1CCCN(c2ccc(N3CCCC(F)(F)C3)cc2)C1=O [Example 70]
61 | 15 | – | O=C(Nc1ccc(Cl)cc1)N[C@@H]1CCCN(c2ccc(N3CCC4(CCCO4)CC3)cc2)C1=O [Example 102]
190 | 14 | – | CC(=O)N[C@@H]1CCN(c2ccc(N3CCC[C@@H](NC(=O)Nc4ccc(C(F)(F)F)cc4)C3=O)cc2)C1 [Example 69]

EC50 (human FPR1) [nM] | EC50 (human FPR2; [1]) [nM] | EC50 (human FPR2; [2]) | Compound
1500 | 540 | 100 to 1000 nM | O=C(Nc1ccc(C(F)(F)F)cc1)N[C@H]1CCCN(c2ccc(N3CC4(COC4)C3)cc2)C1=O [Example 9]
– | – | ≤ 10 nM | O=C(Nc1ccc(C(F)(F)F)cc1)N[C@@H]1CCCN(c2ccc(N3CCOCC3)cc2)C1=O [Example 46]
– | – | 10 to 100 nM | O=C(Nc1ccc(C(F)(F)F)cc1)N[C@@H]1CCCN(c2ccc(N3CCCC3=O)cc2)C1=O [Example 2]
– | – | ≤ 10 nM | O=C(Nc1ccc(Cl)cc1F)N[C@@H]1CCCN(c2ccc(N3CC[C@@H](F)C3)c(F)c2F)C1=O [Example 88]
– | – | ≤ 10 nM and 10 to 100 nM | O=C(Nc1cnc(C(F)(F)F)cn1)N[C@@H]1CCCN(c2ccc(N3CCC(F)(F)C3)cc2)C1=O [Example 67]
– | – | ≤ 10 nM | COCC1CCCCN1c1ccc(N2CCC[C@@H](NC(=O)Nc3cnc(C(F)(F)F)cn3)C2=O)c(F)c1 (stereo partly shown) [Example 71]
– | – | 10 to 100 nM | CN1CCN(c2ccc(N3CCC[C@@H](NC(=O)Nc4ccc(C(F)(F)F)cc4)C3=O)cc2)CC1 [Example 44]
– | – | ≤ 10 nM | COCC1COCCN1c1ccc(N2CCC[C@@H](NC(=O)Nc3ccc(C(F)(F)F)cc3)C2=O)cc1 (stereo partly shown) [Example 21]
– | – | ≤ 10 nM | CS(=O)(=O)C1CCN(c2ccc(N3CCC[C@@H](NC(=O)Nc4ccc(C(F)(F)F)cc4)C3=O)cc2)C1 (stereo partly shown) [Example 108]
– | – | ≤ 10 nM | O=C(Nc1ccc(Cl)cc1)N[C@@H]1CCCN(c2ccc(N3C[C@@H](F)[C@@H](F)C3)cc2)C1=O [Example 98]
– | – | 10 to 100 nM | CC1CCN(c2ccc(N3CCC[C@@H](NC(=O)Nc4ccc(C(F)(F)F)cc4)C3=O)cn2)CC1 [Example 59]
– | – | 10 to 100 nM | O=C(Nc1ccc(C(F)(F)F)cc1)N[C@@H]1CCCN(c2ccc(N3CCCC(F)C3)nc2)C1=O (stereo partly shown) [Example 57]
– | – | ≤ 10 nM | CN(C)C1CN(c2ccc(N3CCC[C@@H](NC(=O)Nc4ccc(C(F)(F)F)cc4)C3=O)cc2)CC1O (stereo partly shown) [Example 79]
– | – | ≤ 10 nM | COC1CCN(c2ccc(N3CCC[C@@H](NC(=O)Nc4ccc(Cl)cc4)C3=O)cc2)C1 (stereo partly shown) [Example 76]
– | – | ≤ 10 nM | O=C(Nc1ccc(C(F)(F)F)cc1)N[C@@H]1CCCN(c2ccc(N3CCC(CO)C3)cc2)C1=O (stereo partly shown) [Example 73]
– | – | 100 to 1000 nM | COC[C@@H]1CCCN1c1ccc(N2CCC[C@@H](NC(=O)Nc3ccc(C(F)(F)F)cn3)C2=O)cc1 [Example 24]
– | – | 10 to 100 nM | O=C(Nc1ccc(C(F)(F)F)cc1)N[C@@H]1CCCN(c2ccc(N3CCN(CCO)CC3)nc2)C1=O [Example 61]
– | – | 100 to 1000 nM | COCC1COCCN1c1ccc(N2CCC[C@@H](NC(=O)Nc3ccc(C(F)(F)F)nc3)C2=O)cc1 (stereo partly shown) [Example 22]
